Assay results as given in patent US20240245703A1, “TOPICAL APPLICATION OF AGENTS TO REDUCE SUN SENSITIVITY AND IMPROVE TOPICAL PHOTODYNAMIC THERAPY” (Wright State University, priority 2021, published 2024).
Where two headings read alike, the source gives them in different places.

Key:
[1] = tested on: aSMase; assay: residual aSMase activity after treatment of PC12 cells with 10 micromolar agent; assay type: cell-based; conditions: from Table 1 residual aSMase activity
Method: The data were obtained in a cell-based study by adding 10 micromolar aliquots of the above agents to PC12 cells for the indicated amounts of time (usually 0.5, 6, or 24 hours). Cells were lysed and aSMase activity measured using [choline methyl-14C] sphingomyeline. The amount of aSMase activity following the treatment of the agent was compared to vehicle without any FIASM. […] The data for the listed compounds (n=276) is based on the publication by Kornhuber et al. 2008, including compounds number n=101 combined with an additional set of compounds (n=175) Kornhuber J, Muehlbacher M, Trapp S, Pechmann S, Friedl A, Reichel M, Mühle C, Terfloth L, Groemer T W, Spitzer G M, Liedl K R, Gulbins E, Tripal P. Identification of novel functional inhibitors of acid sphingomyelinase. PLOS One. 2011; 6 (8): e23852. doi: 10.1371/journal.pone.0023852. Epub 2011 Aug. 31. PMID: 21909365; PMCID: PMC3166082. The numbering of compounds is identical to the previous publication for the first 101 compounds. CID=PubChem Compound ID. Set: 1=experimental values from Kornhuber et al. 2008, 2=corrected experimental values of the previously published compounds; 3=newly investigated compounds, Acid/Base: 1=monobase, 2=monoacid, 3=bibase, 4=zwitter. Mean residual activity of ASM is given as % of the corresponding control values.

[2] = tested on: aSMase; conditions: cited from earlier work; for Residual ASM Activity: 10 micromolar, PC12 cells, % of corresponding control values; for residual aSMase activity after treatment: from Kornhuber et al. 2008
[3] = hairless mice, effect of propylene glycol; cited from earlier work
[4] = tested on: PDT-induced MVP release; assay: PDT-induced MVP release in skin and plasma of mice; assay type: in vivo
Method: Next, the role of PAF and aSMase in PDT-induced MVP release was assessed. […] Next, the ability of topical PDT to generate MVP in vivo in mice, and the role of aSMase in this process, was determined. […] Two approaches were used to determine if PDT-induced MVP involved aSMase.
The role of aSMase in PDT-mediated MVP release was evaluated in a murine system. For the data shown in FIG. 18, wild-type mice were treated with either sham, 100 μl of 5 mM IMIP, or 90% polyethylene glycol: 10% DMSO vehicle, or 1 μM TPA (as a positive control for MVP release), or PDT using 20 J/cm^2 blue light. Immediately following PDT, the treated areas were given vehicle or imipramine. At 4 hours post-treatment, the mice were euthanized and MVP were measured from duplicate 6-mm punch biopsies and plasma. The data are mean±SD fold increase in MVP normalized to tissue weight/plasma volume. * Denotes statistically significant (P<0.05) changes from sham; #statistically significant (P<0.05) changes from comparator denoted by line by two-way ANOVA; NS not statistically significant.
To confirm the role of aSMase in PDT-induced MVP generation, PDT effects were evaluated in the absence of aSMase was evaluated in a murine system. For the data shown in FIG. 19, wild-type or aSMase-deficient (Smpd1−/−) mice underwent sham or PDT using 20 J/cm^2 blue light. At 4 hours post-treatment, the mice were euthanized and MVP were measured from duplicate 6-mm punch biopsies and plasma. The data are mean±SD fold increase in MVP normalized to tissue weight/plasma volume. * Denotes statistically significant (P<0.05) changes from sham; NS not statistically significant.

[5] = tested on: PDT-induced immunosuppression; assay: contact hypersensitivity (CHS) to DNFB after PDT, ear thickness; assay type: in vivo, mice; conditions: aSMase-deficient (Smpd1-/-) mice, CPAF intraperitoneal
Text: Five days later the mice underwent sensitization with the neoantigen DNFB. To test for local immunosuppression, DNFB was applied to the PDT-treated area. To test for systemic immunosuppression, the DNFB was applied to back skin at least 2 cm away from the PDT-treated area. Nine days later the mice underwent elicitation reactions to DNFB by application to one ear, with vehicle applied to the other ear. One day later the ear thickness was obtained as a measure of CHS reaction and compared to pre-treatment and vehicle-treated values. Some mice were treated with intraperitoneal CPAF as a positive control for systemic immunosuppression.
For the data shown in FIG. 20, wild-type mice either were injected intraperitoneally with 250 ng CPAF as a positive control for immunosuppression, underwent PDT using 10 J/cm^2 blue light, or received no treatment (SHAM). […] Five days later the mice underwent sensitization with DNFB in PDT-treated (local immunosuppression) or non-PDT-treated skin (systemic immunosuppression). Nine days later the mice underwent elicitation reactions to ears with ear thickness measured at 24 hours. For the data shown in FIG. 21, wild type and aSMase-deficient (Smpd1−/−) mice underwent treatment with CPAF or PDT followed by DNFB sensitization/elicitation reactions as in FIG. 20. The data are mean±SD values. * Denotes statistically significant (P<0.05) changes from sham treatment values using two-way ANOVA.

[6] = tested on: human fibroblasts which lack PAFRs; assay: MVP levels in human fibroblasts which lack PAFRs; assay type: cell-based; conditions: human fibroblasts lacking PAFRs, data not shown
[7] = tested on: HaCaT keratinocytes; assay: PDT (5-ALA + blue light) MVP release in HaCaT keratinocytes; assay type: cell-based, human; conditions: HaCaT
Method: PDT results in acute cellular destruction and inflammation and photosensitivity, as well as delayed immunosuppression. […] Thus, it was of further interest whether experimental PDT of HaCaT keratinocytes generated MVP in vitro. To that end, HaCaT cells were pretreated with 5-ALA alone, or blue light alone, or a 4 hour incubation of 5-ALA in the dark followed by various fluences of blue light, and MVP were measured in the supernatants at 4 hours post blue light. 100 nM CPAF and TPA were used as positive controls for MVP release.
For the data shown in FIG. 14, HaCaT keratinocytes were treated with sham (no treatment), 0.1% ethanol vehicle control (VEH), 100 nM TPA, 100 nM CPAF, 1 mM 5-ALA for 4 hours, or 5-ALA followed by various fluences (2.5-20 J/cm^2) of blue light or blue light alone. Levels of MVPs released into supernatants were measured at 4 hours. […] For the data shown in FIG. 15, human skin explants were treated with sham, 100 μL vehicle (90% ethanol+10% DMSO) (VEH), 1 μM TPA, 1 µM CPAF, 1 mM 5-ALA for 4 hours, blue light or 5-ALA+blue light at 20 J/cm^2. After four hours, duplicate 6-mm punch biopsies were obtained, weighed, and MVPs were measured. The data are the mean±SE from 3-4 separate experiments conducted in duplicate. * Denotes statistically significant (P <0.05) changes from sham values.
Supernatants were collected at 4 hours and MVP measured. The data are the mean±SE MVP fold change from sham-treated values. For the data shown in FIG. 17, human skin explants were treated as in FIG. 15, with the exception that in some experiments 100 μL of 5 mM IMIP was added post-PDT. MVP were measured in duplicate 6-mm punch biopsies obtained 4 hours post-treatment.

CN(C)CCC=C1c2ccccc2CCc2ccccc21 [Amitriptyline]
potency relative to imipramine [1]: approximately three times more potent than imipramine
Residual ASM Activity ([2]; incubation time 0.5 h): 11.7%
residual aSMase activity after treatment [2]: 11.7%
absorption with propylene glycol [3]: enhances absorption

CCCCCCCCCCCCC/C=C/[C@@H](O)[C@H](CO)NC(C)=O [C-2 ceramide]
MVP generation in aSMase KO mice ([4]; topical application, aSMase KO mice, data not shown): generates MVP in the aSMase KO mice

CCCCCCCCCCCCCCCCOC[C@H](COP(=O)([O-])OCC[N+](C)(C)C)OC(=O)NC [CPAF, carbamoyl-PAF]
immunosuppression in aSMase KO mice (CHS to DNFB) [5]: resulted in similar levels of immunosuppression in comparison to wild-type mice
MVP levels in fibroblasts [6]: robust increases in MVP levels in response to PDT but not the PAFR agonist CPAF

NCC(=O)CCC(=O)O [Compound 5-ALA, 5-aminolevulinic acid]
MVP generation, 5-ALA along with blue light (PDT) ([7]; 1 mM 5-ALA 4 hours then 2.5-20 J/cm^2 blue light, 4 h): resulted in high levels of MVP generation in a dosage-dependent manner
MVP formation, 5-ALA alone ([7]; 1 mM 5-ALA 4 hours without blue light): did not generate appreciate MVP formation

CNCCCN1c2ccccc2CCc2ccccc21 [Desipramine]
Residual ASM Activity ([2]; incubation time 0.5 h): 15.6%
absorption with propylene glycol [3]: enhances absorption

CNCCC=C1c2ccccc2CCc2ccccc21 [Nortriptyline]
Residual ASM Activity ([2]; incubation time 0.5 h): 13.3%
absorption with propylene glycol [3]: enhances absorption

OCCN1CCN(CCCN2c3ccccc3Sc3ccc(Cl)cc32)CC1 [Perphenazine]
Residual ASM Activity ([2]; incubation time 0.5 h): 20.1%

CN1CCC(=C2c3ccccc3Sc3ccccc32)CC1 [Pimethixene]
Residual ASM Activity ([2]; incubation time 24 h): 16.5%

CCN(CC)C(C)CN1c2ccccc2Sc2ccccc21 (stereo not drawn) [Profenamine]
Residual ASM Activity ([2]; incubation time 0.5 h): 29.7%

CN(C)CCCN1c2ccccc2Sc2ccccc21 [Promazine]
Residual ASM Activity ([2]; incubation time 0.5 h): 33.6%

CC(CN1c2ccccc2Sc2ccccc21)N(C)C (stereo not drawn) [Promethazin]
Residual ASM Activity ([2]; incubation time 0.5 h): 32.2%

CNCCCC1c2ccccc2C=Cc2ccccc21 [Protriptyline]
Residual ASM Activity ([2]; incubation time 0.5 h): 12.7%

CN[C@H]1CC[C@@H](c2ccc(Cl)c(Cl)c2)c2ccccc21 [Sertraline]
Residual ASM Activity ([2]; incubation time 0.5 h): 12.3%

CCCCCCCCCCCCCC(=O)O[C@@H]1[C@@H](C)[C@@]2(O)[C@@H](C=C(CO)C[C@]3(O)C(=O)C(C)=C[C@@H]23)[C@@H]2C(C)(C)[C@]12OC(C)=O [TPA, 12-O-tetradecanoylphorbol-13-acetate]
MVP levels after topical TPA ([4]; wild-type mice, 1 μM TPA, positive control, 4 h): resulted in increased levels of MVP

CC/C(=C(\c1ccccc1)c1ccc(OCCN(C)C)cc1)c1ccccc1 [Tamoxifen]
Residual ASM Activity ([2]; incubation time 6 h): 4.1%

CC(C)(C)c1ccc(C(O)CCCN2CCC(C(O)(c3ccccc3)c3ccccc3)CC2)cc1 (stereo not drawn) [Terfenadine]
Residual ASM Activity ([2]; incubation time 0.5 h): 21.8%

CSc1ccc2c(c1)N(CCC1CCCCN1C)c1ccccc1S2 (stereo not drawn) [Thioridazin]
Residual ASM Activity ([2]; incubation time 6 h): 10.4%

C[C@H]1CC[C@]2(NC1)O[C@H]1C[C@H]3[C@@H]4CC[C@H]5C[C@@H](O)CC[C@]5(C)[C@H]4CC[C@]3(C)[C@H]1[C@@H]2C [Tomatidine]
Residual ASM Activity ([2]; incubation time 24 h): 15.8%

CN1CCN(CCCN2c3ccccc3Sc3ccc(C(F)(F)F)cc32)CC1 [Trifluoperazine]
Residual ASM Activity ([2]; incubation time 6 h): 8.3%

CN(C)CCCN1c2ccccc2Sc2ccc(C(F)(F)F)cc21 [Triflupromazine]
Residual ASM Activity ([2]; incubation time 0.5 h): 29.5%

CC(CN(C)C)CN1c2ccccc2CCc2ccccc21 (stereo not drawn) [Trimipramine]
Residual ASM Activity ([2]; incubation time 0.5 h): 13.8%

c1cc(CN2CCCCC2)cc(OCCCNc2nc3ccccc3s2)c1 [Zolantidine_(SKB41), Zolantidine]
Residual ASM Activity ([2]; incubation time 6 h): 21.6%

O=C(CCCN1CCC(O)(c2ccc(Cl)cc2)CC1)c1ccc(F)cc1 [haloperidol]
residual aSMase activity after treatment [2]: 86.1%
